This is an account of results in patent US8912202B2, “N-(benzimimdazol-2-yl)-cyclopropane carboxamides as lysophosphatidic acid antagonists” (Merck Patent GmbH, priority 2011, dated 2014).

A value given as a limit tells only on which side of the number the result lay.

The target of the assay is T1, LPA2R (Homo sapiens, UniProt Q9HBW0).
T1 construct: expressed in transfected cells; host or cells: U2OS
The assay is described as follows: LPA2R-Calciumflux assay (FLIPR, intracellular calcium mobilisation after LPA). The following applies: U2OS cells recombinant expressing LPA2R; antagonism of LPA-induced calcium flux; racemate of the two trans enantiomers unless marked enantiomer. Type of assay: cell-based. From the text:
The assay detects intra cellular calcium which is generated by cells upon activation of the LPA2 receptor by its ligand LPA. This transient calcium mobilization can be monitored using a commercial calcium detection kit (e.g. from Molecular Devices). The main component of such a kit is a dye, which becomes fluorescent when calcium is present—a transient fluorescence signal after addition of a ligand to a test well are the result. Readers like the FLIPR (Molecular Devices) can be used to monitor such transient “Ca-flux” signals.
The signals are calculated according to peak maximum minus base line.
Compounds which are antagonists of LPA lead to a decreased mobilisation of intracellular calcium and thus to a lower signal. The assay is performed in microplates (384 wells per plate).
LPA2R-Calciumflux Assay Protocol
The assay is run according to the following procedure:
50 uL seed cells (10000 cells/well in DMEM buffer)
• Incubate 24 h at 37° C., 10% CO2 • aspirate medium 50 uL add calcium dye 1×HBSS/HEPES buffer • incubate 1 h at 37° C. (“loading”) • equilibrate 10 min at RT 5 uL add compounds in HEPES buffer • shake 10 sec. at 1000 rpm • incubate 15 min at RT 20 uL add LPA (in the FLIPR Tetra) in Krebs-buffer/BSA & measurement
The cells are seeded in DMEM buffer (DMEM, 10% FCS, 10 mM HEPES, 1% Pen/Strep).
Dye loading is done in HBSS/HEPES buffer (100 mL 10×HBSS+20 mL 1M HEPES+880 mL water, pH 7.4)
The LPA is added in Krebs/BSA buffer (120 mM NaCl, 5 mM KCl, 0.62 mM MgSO4, 1.8 mM CaCl2, 10 mM HEPES, 6 mM D(+)-Glucose, 0.2% BSA, pH 7.4).
The compounds are pre-diluted in HEPES buffer (20 mM, pH 7.4), whereby the final DMSO content in the assay is kept at 1%. The compounds are pre-diluted in order to generate dose response series on the microplates. The dose response series consist of 10 concentrations for each compound from 30 uM final to 1 nM final. From all compound wells the resulting signals are referred to control wells (located on each plate besides the compound wells) in terms of % activity.
From these % activity values—along with the corresponding compound concentrations—IC50 values are fitted for each compound using standard fitting programs such as Graphpad Prism. Here the method “log(inhibitor) vs. response—Variable slope” is used.
Background: A change in cytosolic calcium serves as a functional read-out for many receptors and channels.

T1 sequence (Q9HBW0 whole entry): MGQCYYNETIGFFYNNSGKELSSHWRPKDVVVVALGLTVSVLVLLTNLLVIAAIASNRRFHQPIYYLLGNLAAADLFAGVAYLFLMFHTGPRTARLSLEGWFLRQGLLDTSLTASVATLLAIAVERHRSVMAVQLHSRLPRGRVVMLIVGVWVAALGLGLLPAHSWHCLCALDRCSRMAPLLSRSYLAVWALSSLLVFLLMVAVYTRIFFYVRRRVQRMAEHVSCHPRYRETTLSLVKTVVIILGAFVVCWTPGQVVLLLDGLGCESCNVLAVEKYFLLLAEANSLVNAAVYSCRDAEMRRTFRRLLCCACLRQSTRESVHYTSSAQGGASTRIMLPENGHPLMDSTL

The term IC50 denotes the concentration that gives 50% inhibition. As to `O=C(Nc1nc2ccccc2[nH]1)C1CC1c1ccccc1` (racemic) [2-Phenyl-cyclopropane-carboxylic acid (1H-benzoimidazol-2-yl)-amide], the IC50 was in the range of 10 to 100 nM.

As for `O=C(Nc1nc2ccccc2[nH]1)C1C(c2ccccc2)C1(F)F` (racemic) [2,2-Difluoro-3-phenyl-cyclopropane-carboxylic acid (1H-benzoimidazol-2-yl)-amide], the IC50 lay in the range of 100 to 1000 nM.

For the molecule `CC1(C)C(C(=O)Nc2nc3ccc(Cl)cc3[nH]2)C1c1ccccc1` (racemic) [2,2-Dimethyl-3-phenyl-cyclopropane-carboxylic acid (6-chloro-1H-benzoimidazol-2-yl)-amide], the IC50 is > 10000 nM.

Regarding `O=C(Nc1nc2ccccc2[nH]1)C1CC1c1ccccc1Cl` (racemic) [2-(2-Chloro-phenyl)-cyclopropane-carboxylic acid (1H-benzoimidazol-2-yl)-amide], the IC50 lay within 10 to 100 nM.

As to `O=C(Nc1nc2ccccc2[nH]1)C1CC1c1ccc(C(F)(F)F)cc1` (racemic) [2-(4-Trifluoromethyl-phenyl)-cyclopropane-carboxylic acid (1H-benzoimidazol-2-yl)-amide], the IC50 is 1000 to 10000 nM.

For `O=C(Nc1nc2cc(Cl)cnc2[nH]1)C1CC1c1ccccc1` (single isomer, unassigned; enantiomer-2) [enantiomer-2-Phenyl-cyclopropane-carboxylic acid (6-chloro-3H-imidazo[4,5-b]pyridin-2-yl)-amide], the IC50 is < 10 nM.

Take `O=C(Nc1nc2ccc(Cl)cc2[nH]1)C1C(c2ccccc2)C1(F)F` (racemic) [2,2-Difluoro-3-phenyl-cyclopropane-carboxylic acid (6-chloro-1H-benzoimidazol-2-yl)-amide]: the IC50 fell in the range of 10 to 100 nM.

`O=C(Nc1nc2c(Cl)cc(Cl)cc2[nH]1)C1CC1c1ccccc1` (racemic) [2-Phenyl-cyclopropane-carboxylic acid (4,6-dichloro-1H-benzoimidazol-2-yl)-amide]: the 50% inhibitory concentration (IC50) was in the range of 100 to 1000 nM.

As to `O=C(Nc1nc2ccccc2[nH]1)C1CC1c1cccc(Br)c1` (racemic) [2-(3-Bromo-phenyl)-cyclopropane-carboxylic acid (1H-benzoimidazol-2-yl)-amide], the IC50 was 10 to 100 nM.

As to `Cc1ccc2nc(NC(=O)C3CC3c3ccccc3)[nH]c2c1` (racemic) [2-Phenyl-cyclopropane-carboxylic acid (6-methyl-1H-benzoimidazol-2-yl)-amide], the IC50 is 100 to 1000 nM.

Turning to `O=C(Nc1nc2cc(Cl)cnc2[nH]1)C1CC1c1cccc(F)c1` (racemic) [2-(3-Fluoro-phenyl)-cyclopropane-carboxylic acid (6-chloro-3H-imidazo[4,5-b]pyridin-2-yl)-amide], the IC50 was < 10 nM.

Regarding `O=C(Nc1nc2ccccc2[nH]1)C1CC1c1ccc(F)cc1` (racemic) [2-(4-Fluoro-phenyl)-cyclopropane-carboxylic acid (1H-benzoimidazol-2-yl)-amide], the IC50 lay within 10 to 100 nM.

Consider `O=C(Nc1nc2ccccc2[nH]1)C1CC1c1cccc(F)c1` (racemic) [2-(3-Fluoro-phenyl)-cyclopropane-carboxylic acid (1H-benzoimidazol-2-yl)-amide], for which the IC50 lay within 10 to 100 nM.

In the case of `O=C(Nc1nc2ccccc2[nH]1)C1CC1c1ccc(Cl)cc1` (racemic) [2-(4-Chloro-phenyl)-cyclopropane-carboxylic acid (1H-benzoimidazol-2-yl)-amide], the IC50 was > 10000 nM.

Consider `Cc1cccc(C2CC2C(=O)Nc2nc3ccccc3[nH]2)c1` (racemic) [2-m-Tolyl-cyclopropane-carboxylic acid (1H-benzoimidazol-2-yl)-amide], for which the IC50 is 10 to 100 nM.

`CN(C)c1ccc(C2CC2C(=O)Nc2nc3ccccc3[nH]2)cc1` (racemic) [2-(4-Dimethylamino-phenyl)-cyclopropane-carboxylic acid (1H-benzoimidazol-2-yl)-amide]: the IC50 is 1000 to 10000 nM.

On to `COc1ccc(C2CC2C(=O)Nc2nc3ccccc3[nH]2)cc1` (racemic) [2-(4-Methoxy-phenyl)-cyclopropane-carboxylic acid (1H-benzoimidazol-2-yl)-amide], for which the IC50 lay within 1000 to 10000 nM.
